Assay results from PMC5719408, “Multivalent cross-linking of actin filaments and microtubules through the microtubule-associated protein Tau” (Nature Communications, 2017).
Read-outs that look alike come from different tables or passages of the source.

Columns and labels:
F-actin [1] = assay: Protein co-sedimentation / actin bundling (differential centrifugation, SDS gel); assay type: biochemical, human; conditions: for bundling of F-actin: co-sedimentation, F-actin with Tau (1:1) or Tau peptides (1:10, Tau(254–268) 1:30), room temperature 30 min
Description: The ability of Tau to bundle F-actin was studied using electron microscopy (EM). […] Next, Tau/F-actin co-sedimentation was performed. The same sample, which was used for EM, was exposed to two sequential steps of centrifugation, in which single-actin filaments and actin bundles were collected separately. Subsequently, aliquots from supernatant (SN), filament (PF), and bundle (PB) fractions were loaded in a 4–20% gradient gel (Fig. 1c).
(§1) The sample was then dialyzed against General Actin Buffer (GAB; 5 mM TrisHCl pH 8.0, 0.2 mM CaCl2, 0.2 mM ATP, 0.5 mM DTT) or NMR buffer (50 mM NaH2PO4/Na2HPO4 pH 6.8, 10 mM NaCl, 1 mM DTT, 10% (v/v) D2O) to be used for electron microscopy or NMR experiments, respectively. In case of actin, lyophilized actin was reconstituted to 10 mg ml^−1 by adding 100 μl of distilled water to be in the following buffer: GAB with 5% (w/v) sucrose and 1% (w/v) dextran. Subsequently, the sample was spun at 18,400 × g for 15 min, the supernatant was kept, and actin was polymerized by incubating 0.4 mg ml^−1 G-actin in GAB and supplemented with polymerization buffer (1/10th the volume; 100 mM Tris HCl pH 7.5, 20 mM MgCl2, 500 mM KCl, 10 mM ATP) for 1 h at room temperature. Afterwards, the sample was centrifuged at 100,000 × g during 1 h at 4 °C. Filaments were collected at the bottom of the ultracentrifuge tube. The pellet was then resuspended in GAB or NMR Buffer as required.
Mixtures of F-actin with Tau (1:1) or Tau peptides (1:10 molar ratio) were incubated at room temperature for 30 min. In case of the shorter peptide Tau(254–268), a 1:30 ratio was used. Centrifugation was performed in two steps. First, a spin rate of 5000 × g was used during 15 min to collect bundles of F-actin (PB) at the bottom of the tube. Secondly, the remaining sample was centrifuged at 100,000 × g during 1 h collecting actin filaments (PF). The final supernatant (SN) was also kept for later usage. Pellets were resuspended in 80 μl of GAB. A volume of 25 μl of sample were taken for EM while the remaining 55 μl were loaded in a 4–20% gradient SDS gel, which was colored with […] and denatured with SDS and heat.

F-actin [2] = assay: Transfer NOE (2D NOESY) of Tau peptides with F-actin; assay type: binding, human; conditions: 27 μM F-actin, 800 μM peptide, NMR buffer pH 6.8 with 0.2 mM ATP and 0.2 mM CaCl2, 278 K
Text: Instead, short hydrophobic Tau segments, which are separated from each other by flexible residues, bind dynamically to actin’s hydrophobic pocket (Fig. 2). […] NMR Nuclear overhauser effect (NOE) measurements that are sensitive for three-dimensional structure were subsequently performed. […] This approach is called transfer NOE and has been widely used to determine the structure of small ligands in complex with high molecular weight binding partners.
Two-dimensional NOESY experiments with five different mixing times ranging from 50 up to 250 ms were recorded for Tau(254–290) in the presence of F-actin. […] The NOE peaks, which were observed only in the presence of F-actin, provide experimental restraints for the structure of Tau(254–290) in complex with F-actin.
as §1
NMR spectra were acquired on Bruker Avance800 and 900 MHz NMR spectrometers at 278 K to reduce solvent exchange. 2D ^1H-^15N HSQC spectra consisted of 64 scans, spectral windows of 12 ppm in the proton and 25 ppm in the nitrogen dimension. 2D NOESY experiments were acquired using 88 scans, 12 ppm spectral width and a time domain of 512 and 2048 points in the first and second dimension, respectively. To generate buildup curves, mixing times of 50, 80, 100, 150, and 250 ms were used.
For NOESY experiments, 27 μM of F-actin were mixed with 800 μM of Tau peptide in NMR buffer supplemented with 0.2 mM ATP and 0.2 mM CaCl2. A reference experiment was performed in similar conditions only with 800 μM peptide. For resonance assignment, a 2D TOCSY experiment with a mixing time of 75 ms was performed. All data were processed using NMRPipe[76] and analyzed using Sparky[77].

F-actin [3] = assay: Saturation transfer difference (STD) NMR with F-actin; assay type: binding, human; conditions: compared with wild-type Tau(254–290)
Description: We therefore prepared a mutant version of Tau(254–290), in which L266 was replaced by a glutamate, i.e., Tau(254–290)-L266E. We then used saturation transfer difference (STD)[49] experiments to probe the influence of the mutation on binding of Tau(254–290) to F-actin.
as §1

NBD-labeled F-actin = target: T1, NBD-labeled F-actin (Oryctolagus cuniculus, UniProt P68135); assay: F-actin binding assay (NBD fluorescence change); conditions: 25 °C
T1 construct: NBD-conjugated actin from α-skeletal muscle was bought from Hypermol; purchased Hypermol (Bielefeld, Germany); host or cells: α-skeletal muscle (tissue-derived (so in the source))
Description: In order to gain insight into the affinity of the Tau/F-actin-interaction, the change in fluorescence of 7-chloro-4-nitrobenz-2-oxa-1,3-diazole (NBD)-labeled F-actin upon addition of Tau was followed[31]. 0.2 μM of NBD-labeled and phalloidin-stabilized F-actin were mixed with increasing amounts of Tau (Fig. 1d and Supplementary Fig. 1).
NBD-conjugated actin from α-skeletal muscle was bought from Hypermol (Bielefeld, Germany). In this experiment, 7-chloro-4-nitrobenz-2-oxa-1,3-diazole (NBD)-labeled G-actin was polymerized starting from 0.4 mg ml^−1 of the conjugated actin supplemented with 10-fold excess of phalloidin (catalog no. P2141, Sigma-Aldrich) to provide stable filaments. […] The change of fluorescence intensity from NBD was followed in a Cary Eclipse fluorescence spectrophotometer (Agilent Technologies, Inc.). […] As reported by Hertzog, M. et al.[31] the normalized decrease in fluorescence (equation 1) was analyzed and fitted by using equation 2.1 E=F-F0/Fmax-F0 2 E=1/2C+1/2Z-1/2C+Z^2-4Z with Z=[partner]/[F-actin]andC=1+Kd/[F-actin]
Affinity of Tau and Tau fragments for binding to NBD-labeled F-actin. (a) Change of NBD fluorescence upon addition of increasing concentrations of Tau and Tau fragments. […]
(b) Bar diagram showing Kd values, which were determined based on the quenching effect of Tau/Tau fragments on the fluorescent properties of NBD-labeled F-actin. […]

F-actin [4] = assay: Electron microscopy of actin bundles; assay type: biochemical, human; conditions: uranyl acetate stain, room temperature
Description: The ability of Tau to bundle F-actin was studied using electron microscopy (EM). The diameter of single actin filaments was approximately 7 nm, in agreement with previous studies, [30]. […] Actin bundles ranged between 20 and 150 nm in diameter. Next, Tau/F-actin co-sedimentation was performed. The same sample, which was used for EM, was exposed to two sequential steps of centrifugation, in which single-actin filaments and actin bundles were collected separately. Subsequently, aliquots from supernatant (SN), filament (PF), and bundle (PB) fractions were loaded in a 4–20% gradient gel (Fig. 1c). […] In addition, ~8% of Tau molecules were bound to single filaments, while ~29% of Tau was found together with actin bundles.
The sample was then dialyzed against General Actin Buffer (GAB; 5 mM TrisHCl pH 8.0, 0.2 mM CaCl2, 0.2 mM ATP, 0.5 mM DTT) or NMR buffer (50 mM NaH2PO4/Na2HPO4 pH 6.8, 10 mM NaCl, 1 mM DTT, 10% (v/v) D2O) to be used for electron microscopy or NMR experiments, respectively. […]
Samples were bound to a glow discharged carbon foil covered copper grid. […] The samples were evaluated at room temperature using a CM 120 transmission electron microscope (FEI, Eindhoven, and The Netherlands) and a TemCam F416 CMOS camera (TVIPS, Gauting, Germany).

F-actin [5] = assay: Titration of F-actin into 15N-Tau, two-state Bloch-McConnell fit (peer review file); assay type: binding, human; conditions: grid-search pushed to the edge of the parameter space, fits were not good
Text: (4 pictures or pasted objects on this page, not shown here)

F-actin [6] = conditions: phosphate buffer; read-out: Kd of Tau/F-actin, previously reported; cited from earlier work
Description: 0.2 μM of NBD-labeled and phalloidin-stabilized F-actin were mixed with increasing amounts of Tau (Fig. 1d and Supplementary Fig. 1). […] Other stoichiometries, however, cannot be excluded. The derived dissociation constant is lower than a previously reported value of 241 ± 43 nM[7] ...

Tau = assay: Binding of cofilin to Tau (HSQC); set-up: species or system human; conditions: 15N-Tau/F-actin 1:1.5, 10-fold excess of cofilin
Description: In order to gain insight into how Tau regulates the polymerization and structure of F-actin, we sought to obtain information about the Tau-binding site on F-actin. […] One of these binding partners is cofilin, a 21 kDa eukaryotic protein, which binds to F-actin with a K d < 0.05 µM[33] and results in disassembly of F-actin[34], [35]. […] To test if the binding site of Tau on F-actin overlaps with that of cofilin, we added a 10-fold excess of cofilin to a solution containing ^15N-labeled Tau and 1.5-fold excess (with respect to Tau) of F-actin. For the resulting mixture, a ^1H-^15N HSQC spectrum was recorded. […] Subsequently, we repeated the actin/Tau co-sedimentation assay in the presence of cofilin.
Human Tau (2N4R) was expressed in the E. coli strain BL21 (DE3) (MERCK Millipore) using the vector pNG2 as described. The bacterial pellet was resuspended in lysis buffer (50 mM Mes, 500 mM NaCl, 1 mM MgCl2, 1 mM EGTA, 5 mM DTT, pH 6.8) and supplemented with a protease inhibitor mixture. Cells were disrupted using a French pressure cell and subsequently boiled for 20 min. […]
For HSQC-based competition experiments, 20 μM of ^15N-labeled Tau were mixed with 30 μM F-actin in NMR buffer supplemented with 0.2 mM ATP and 0.2 mM CaCl2 (sample 2). […] Competition was monitored by reading out the variation in signal broadening in 2D ^1H-^15N HSQC spectra of Tau.

F-actin [7] = conditions: read-out: Kd of cofilin for F-actin; cited from earlier work
Description: In order to gain insight into how Tau regulates the polymerization and structure of F-actin, we sought to obtain information about the Tau-binding site on F-actin. […] One of these binding partners is cofilin, a 21 kDa eukaryotic protein, which binds to F-actin with a K d < 0.05 µM[33] and results in disassembly of F-actin[34], [35].

F-actin [8] = assay: Protein co-sedimentation / actin bundling (differential centrifugation, SDS gel); assay type: biochemical, human; conditions: molar ratio 1.5:1:10

With “K18: artificial fragment of Tau which comprises all four repeats (residues Gln244–Glu372 plus initial Met243)” the “bundling of F-actin” value (F-actin [1]) was “capable of bundling F-actin”.
For “Tau(254–268): contains the residues which form the helix in the N-terminal half of Tau(254–290) (Ac-KNVKSKIGSTENLKH-NH2)”, the “bundling of F-actin” value (F-actin [1]) was “not able to bundle F-actin” and the “transfer NOE cross-peaks in presence of F-actin” value (from here on “transfer NOE cross-peaks”) (F-actin [2]) was “folds into an α-helix (residues 259–265) in complex with F-actin”.
For “Tau(254–284): Tau peptide, residues 254–284”, the “bundling of F-actin” value (F-actin [1]) was “promoted actin bundles”.
For “Tau(254–290)-L266E: mutant version of Tau(254–290), in which L266 was replaced by a glutamate (Ac-KNVKSKIGSTENEKHQPGGGKVQIINKKLDLSNVQSK-NH2)”, the “bundling of F-actin” value (F-actin [1]) was “less efficient in promoting F-actin bundling”, the “STD signal relative to wild-type peptide” value (F-actin [3]) was “decreased STD signal” and the “affinity for F-actin relative to parent (in words)” value (NBD-labeled F-actin; NBD-labeled F-actin, GAB, values only in Supplementary Fig. 1b bar diagram) was “decrease in affinity”. For the same substance, the “transfer NOE cross-peaks” value (F-actin [2]) was “no additional cross-peaks were observed”.
In the case of “Tau(254–290): synthetic Tau peptide, acetyl and amide protection groups at the N- and C terminus”, the “transfer NOE cross-peaks” value (F-actin [2]) is reported as “additional NOE cross-peaks were observed” and the “bundling of F-actin (electron microscopy)” value (F-actin [4]) is reported as “bundles filaments”.
In the case of “Tau(292–319): Tau peptide comprising the residues of repeat R2 and R3”, the “bundling of F-actin” value (F-actin [1]) is reported as “promotes bundling of actin filaments” and the “transfer NOE cross-peaks” value (F-actin [2]) is reported as “revealed NOEs specific for the Tau(292–319)/F-actin complex”.
With “Tau: full-length human Tau (2N4R), expressed in E. coli” the “Tau found together with actin bundles (PB)” value (F-actin [1]; F-actin:Tau 1:1, room temperature 30 min, pellet of 5000 × g, 15 min) was ~ 29%, the “Tau bound to single filaments (PF)” value (F-actin [1]; F-actin:Tau 1:1, room temperature 30 min, pellet of 100,000 × g, 1 h) was ~ 8% and the “Tau remaining in supernatant (SN)” value (F-actin [1]; F-actin:Tau 1:1, room temperature 30 min, quantification of gel band intensity, supernatant after 100,000 × g) was ~ 63%. The “bundling of F-actin” value (F-actin [1]) was “bundles actin filaments”, the Kd (NBD-labeled F-actin; NBD-labeled, phalloidin-stabilized F-actin (α-skeletal muscle actin), 0.2 μM (Results) / 0.25 µM (Methods) F-actin, GAB (5 mM TrisHCl pH 8.0, 0.2 mM CaCl2, 0.2 mM ATP, 0.5 mM DTT), single-binding site fit, s.d. from three experiments, read-out: dissociation constant (Kd) of Tau or Tau fragment for F-actin) was 60 ± 10 nM and the “kon, local two-state NMR fit (residues I260, L266, G287/V287)” value (F-actin [5]) was ~10^7 M-1s-1. The “bundling of F-actin (electron microscopy)” value (F-actin [4]) was “caused bundling of F-actin” and the Kd (F-actin [6]) was 241 ± 43 nM.
For “cofilin: human cofilin (catalog no. CF01, Cytoskeleton, Inc.), 21 kDa eukaryotic actin-binding protein”, the “binding of cofilin to Tau” value (Tau) is given as “does not bind to Tau”, the Kd (F-actin [7]) is given as < 50 nM and the “disassembly of actin filaments by cofilin” value (F-actin [8]; F-actin + Tau + cofilin) is given as “actin filaments were not disassembled by cofilin”. For the same substance, the “effect of cofilin on Tau co-sedimentation with F-actin” value (F-actin [8]) was “decreased the amount of Tau that co-sedimented with F-actin”.
